Assay results: patent US20240360135A1, “IMIDAZO[1,2-B]PYRIDAZINYL COMPOUNDS AND USES THEREOF” (Sumitomo Pharma Oncology, Inc., priority 2021, published 2024)
pEC50, pIC50: −log10 of the molar value. Where two headings read alike, the source gives them in different places.

What was measured:
[1] = tested on: A549 cells; test: Wound healing assay in A549 cells with TGF-β; format: cell-based; details: for IC50: Homo sapiens, wound healing, A549, 5 ng/ml TGF-β; for migration (wound closure): after 72 hours, vs vehicle control with TGF-β
From the text: Overview. Epithelial to mesenchymal transition (EMT) is used to describe epithelial cells losing their cell to cell adhesion and polarity while gaining migratory and invasive properties. The process of EMT is required for normal embryonic development and wound healing, but has also been implicated in fibrosis. In humans, TGF-β signaling is the main driver of EMT, and inhibiting this pathway may be beneficial in various diseases such as fibrosis. A wound healing assay was used to study cell migration and cell-cell interaction, and probe the EMT properties of lung epithelial cells (A549) in presence of Compound 2 or Compound 4.
Procedure. A549 cells (ATCC, CCL-185) were seeded into the ImageLock plate (Essen Bioscience) at 2×10^4 cells/well in 100 μL of complete growth media. Cells were incubated overnight at 37° C., 5% CO2. The next day, cells were washed with 1×PBS and Compound 2, Compound 4, DMSO control (±TGF-β) or galunisertib (TGF-β inhibitor used as positive control) was added to the cells in a serum-free F12K media (0.2% DMSO final, 10 μM starting concentration, 3-fold dilution, 8-doses) in presence of 5 ng/ml TGF-β. Cells were incubated for 48 hours (until they reached confluency) at 37° C., 5% CO2. Wounds were simultaneously created using a WoundMaker™ (Essen Bioscience). Debris and non-attached cells were removed by gently washing once with F12K.
Test compound or control compound and TGF-β were added to the cells in F12K+10% FBS as previously described. The ImageLock plate was put into IncuCyteS3 instrument installed inside a 5% CO2 incubator. The plate was allowed to equilibrate in the IncuCyteS3 instrument for 15 minutes prior to scheduling the first scan and data recording. The plate was incubated for 72 hours at 37° C., and wound closure was recorded in real time with the IncuCyte S3 imaging system. Percentage of relative wound density was quantitatively calculated by the IncuCyte software.

[2] = target: T1, PIM2 (Homo sapiens, UniProt Q9P1W9); test: RBC HotSpot kinase inhibition assay, PIM2; format: biochemical
T1 construct: purchased Invitrogen PR6347B
T1 sequence (Q9P1W9 whole entry): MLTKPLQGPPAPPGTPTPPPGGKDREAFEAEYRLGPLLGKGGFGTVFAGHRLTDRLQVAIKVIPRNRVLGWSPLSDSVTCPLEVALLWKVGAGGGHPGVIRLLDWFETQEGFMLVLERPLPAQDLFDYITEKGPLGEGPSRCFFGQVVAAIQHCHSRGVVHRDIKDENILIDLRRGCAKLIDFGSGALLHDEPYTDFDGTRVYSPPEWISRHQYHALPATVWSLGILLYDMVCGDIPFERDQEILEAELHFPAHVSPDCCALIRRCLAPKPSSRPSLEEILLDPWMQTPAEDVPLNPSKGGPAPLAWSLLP
Protocol: (§1) Reagents. Base Reaction Buffer: 20 mM Hepes (pH 7.5), 10 mM MgCl2, 1 mM EGTA, 0.01% Brij35, 0.02 mg/ml BSA, 0.1 mM Na3VO4, 2 mM DTT, 1% DMSO. The following kinases were used in the assay at the indicated concentrations:
(§2) The following substrates were used in combination with the indicated kinases in the assay at the indicated concentration:
(§3) No cofactors were added to any of the reactions.
(§4) • 1. Prepared substrate in freshly prepared Reaction Buffer. • 2. Delivered kinase into the substrate solution and gently mixed. • 3. Delivered test compound in 100% DMSO into the kinase reaction mixture by Acoustic technology (Echo550; nanoliter range), incubated for 20 minutes at room temperature. • 4. Delivered ^33P-ATP into the reaction mixture to initiate the reaction. • 5. Incubated for 2 hours at room temperature. • 6. Detected kinase activity by P81 filter-binding method.
(§5) The results of the RBC HotSpot™ kinase assay are set forth in Table 1, wherein “A” indicates an IC50<10 nM, “B” indicates an IC50 wherein 10 nM≤IC50≤100 nM, and “C” indicates an IC50>100 nM.

[3] = target: T2, PIM3 (Homo sapiens, UniProt Q86V86); test: RBC HotSpot kinase inhibition assay, PIM3; format: biochemical
T2 construct: purchased Millipore 14-738
Protocol: as §1, §2, §3, §4, §5

[4] = tested on: Caspase 3/7; test: Apoptosis assay (Caspase 3/7) in A549 cells; format: cell-based; details: Homo sapiens, 24 hours, read-out: EC50, Caspase 3/7 activation
From the text: Overview. PIM1 is a kinase, and has many downstream targets including Bad (BCL2 associated agonist of cell death), a member of the BCL-2 family. BCL-2 family members are regulators of the programmed cell death pathways. Proapoptotic activity of Bad is regulated through its phosphorylation. Dephosphorylated Bad forms a heterodimer with Bcl-2 and Bcl-xL, inactivating them and thus allowing Bax/Bak-triggered apoptosis. Bad phosphorylation is thus anti-apoptotic, and Bad dephosphorylation is pro-apoptotic. PIM inhibition is expected to result in a decrease of phosphorylated Bad, and an increase in apoptosis.
Procedure. Three thousand five hundred A549 cells (ATCC, CCL-185) were added per well of a 384-well plate in a total volume of twenty-five microliters and cultured in RPMI medium (no phenol red)+plus ten percent fetal calf serum. The next day, DMSO or test compound was added (90 nanoliters of test compound/DMSO per well) at 7 different concentrations starting at 10 micromolar (3.3-fold dilution). After 24 hours at 37° C. with 5% CO2, apoptosis was measured by using the Caspase 3/7 assay system (Promega, G8090). […] The cells were then incubated at room temperature for 30 minutes and luminescence was measured for each sample using a plate reading luminometer (Envision, PerkinElmer).

[5] = target: T3, PIM1 (Homo sapiens, UniProt P11309); test: RBC HotSpot kinase inhibition assay, PIM1; format: biochemical
T3 construct: purchased Invitrogen PV3503
T3 sequence (P11309 whole entry): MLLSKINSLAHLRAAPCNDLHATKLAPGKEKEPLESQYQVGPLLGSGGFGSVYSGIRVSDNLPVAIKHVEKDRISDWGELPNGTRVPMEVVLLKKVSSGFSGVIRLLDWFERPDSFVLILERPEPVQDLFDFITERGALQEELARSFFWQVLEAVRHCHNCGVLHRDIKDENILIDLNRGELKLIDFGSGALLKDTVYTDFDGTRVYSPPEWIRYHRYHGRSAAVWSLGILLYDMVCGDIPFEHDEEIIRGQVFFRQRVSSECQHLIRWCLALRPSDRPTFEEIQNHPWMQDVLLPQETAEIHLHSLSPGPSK
Protocol: as §1, §2, §3, §4, §5

IC50 ([1]; 24 h, read-out: IC50 (μM) 24 h) [µM] | IC50 ([1]; 48 h, read-out: IC50 (μM) 48 h) [µM] | IC50 ([1]; 72 h, read-out: IC50 (μM) 72 h) [µM] | pIC50 [2] | pIC50 [3] | pEC50 [4] | pIC50 [5] | Compound | migration (wound closure) [1]
1 to 10 | 1 to 10 | 1 to 10 | < 7.00 | > 8.00 | 4.70 to 6.00 | > 8.00 | Cc1cc(-c2cnc3ccc(NC45CCC(C(C)(C)O)(CC4)CC5)nn23)n[nH]1 [Compound 2, 2-(4-((3-(5-methyl-1H-pyrazol-3-yl)imidazo[1,2-b]pyridazin-6-yl)amino)bicyclo[2.2.2]octan-1-yl)propan-2-ol] | strongly inhibited
1 to 10 | 1 to 10 | 1 to 10 | 7.00 to 8.00 | > 8.00 | 4.70 to 6.00 | > 8.00 | CC(C)(O)C12CCC(Nc3ccc4ncc(-c5cc(C6CC6)[nH]n5)n4n3)(CC1)CC2 [Compound 4, 2-(4-((3-(5-cyclopropyl-1H-pyrazol-3-yl)imidazo[1,2-b]pyridazin-6-yl)amino)bicyclo[2.2.2]octan-1-yl)propan-2-ol] | strongly inhibited
